This series in a line: Hydrolysis of phosphoramidite building blocks in 95% aqueous MeCN followed by reverse-phase HPLC. Type of series: physicochemical. As to conditions: 95% aqueous MeCN at 25° C. The protocol: The hydrolysis of phosphoramidite building blocks 12 and 16 in 95% aqueous MeCN at 25° C. was followed by reverse-phase HPLC.

As to “5′-O-(4,4′-Dimethoxytrityl)-3′-O—[(N,N-diisopropylamino)[2-[[2-[(2,3,4,6-tetra-O-acetyl-β-D-glucopyranosyl)oxy]ethyl]oxy]ethoxy]phosphinyl]thymidine [Compound 16]”, the half-life of hydrolysis was determined as 33 h.

For the substance “5′-O-(4,4′-Dimethoxytrityl)-3′-O—[(N,N-diisopropylamino)[3-[(2,3,4,6-tetra-O-acetyl-β-D-glucopyranosyl)oxy]propyl]phosphino]thymidine [Compound 12]”, the half-life of hydrolysis amounted to 48 h.
